Measured values from patent publication US6878742B2, “Heterocyclic sulfonamide inhibitors of beta amyloid production” (Wyeth, priority 2000, dated 2005).
Where “and” joins values, the source holds several entries; their conditions need not be identical. Equal values may be shown once. Read-outs that look alike come from different tables or passages of the source.

Test system: amyloid precursor protein (APP) proteolysis
Assay: Repressor Release Assay (RRA)
Format: cell-based
Protocol: The beta amyloid inhibitory activity of many of the compounds of the present invention has been determined using the Repressor Release Assay (RRA). See, Table 23 below. A compound is considered active in RRA if it leads to at least a 1.5 fold increase in luciferase activity at 20 μM and is non-toxic.
The compounds generated as described in Examples 1 through 220 were tested in the RRA in accordance with published techniques [Shuey, D. J., Sheiffele, P., Jones, D., Cockett, M. I., and Quinet, E. M. (1999), “Repressor release: a useful tool for monitoring amyloid precursor protein (APP) proteolysis in mammalian cells”, Society for Neuroscience Abstracts, Vol. 25, 29th Annual Meeting of Society for Neuroscience, Miami Beach, Fla., Oct. 23-28, 1999]. Briefly, this assay is performed as follows.
CHO-K1 cells are cultured in whole DMEM media (DMEM—High Glucose with 10% fetal bovine serum, 1% Non-essential Amino Acids, and 1% Penicillin-Streptomycin) at 37° C. with 5% CO2. Two million cells are plated into 10-cm dishes 24 hrs prior to transfection.
Transient transfections are completed as recommended by Gibco BRL using their Lipofectamine Plus system. First, 6 μg of pRSVO-luc and 6 μg of APP-lacI construct DNA are added to 460 μL Opti-Mem transfection media and incubated with 30 μL Plus reagent for 15 minutes. Then, a lipid mixture of 40 μL Lipofectamine reagent and 460 μL Opti-Mem transfection media is incubated with the DNA-Plus reagent mixture for 15 minutes. During the DNA-lipid incubation, the CHO-K1 cells are washed once and covered in 5.0 mL DMEM media without Penicillin-Streptomycin. The DNA-lipid preparation is then layered onto these cells and incubated at 37° C. overnight.
One and one half million transfected cells per well (100 μL total volume) are plated into sterile, opaque Packard 96-well Cultur-Plates in clear DMEM whole media (DMEM—without phenol red) and incubated at 37° C. with 5% CO2 for 3-5 hours.
Compounds are diluted using two different protocols; one protocol is used for compounds supplied neat (weighed powder in vial) and the other protocol is used for compounds supplied in solution (20 mM in DMSO in 96-well plates). For both protocols, 25 mM Hepes and 25 mM Hepes/1% DMSO are prepared fresh to be used as diluent. The Hepes/DMSO is used as the diluent control on all experimental plates.
The following table depicts the steps for compound dilution (please note that the last step is the addition of compound to cells/media in tissue culture plate):
Because some compounds arrive in 96-well format at 20 mM, the following represents the protocol for their dilution (note that an average molecular weight of these compounds was used to calculate these dilutions and as above, the last step is the addition of compound to cells/media in tissue culture plate):
Once compounds are diluted, they are applied in duplicate on cells in tissue culture plates (prepared above). Cells are incubated with compound at 37° C. with 5% CO2 for an additional 36-48 hours.
Luciferase assays (LucLite reagent, Packard) are performed and are read on a Packard TopCount instrument. Media is removed from each 96-well plate and replaced with 100 μL PBS per well (with Mg^2+ and Ca^2+). An equal volume (100 μL) of the LucLite lysis/substrate buffer is added to each well and the plates are sealed and mixed in the dark on a rotary shaker for 15-30 minutes at room temperature. Luciferase readings are then taken on the TopCount instrument. Measurements are expressed as relative light units (RLU) and are calculated and analyzed in MS Excel as follows.
A compound is considered active in RRA if it leads to at least a 1.5 fold increase in luciferase activity at 20 μM and is non-toxic, as determined by loss of signal (≦0.75 fold increase). Fold increase is the amount of luciferase activity (measured in relative light units) over diluent control. SEM represents the standard error of the mean for fold increase (not shown).

[1] = Conc 20 μg/mL, luciferase activity over diluent control, read-out: APPI Fold Increase
[2] = Conc 10 μg/mL, luciferase activity over diluent control, read-out: APPI Fold Increase
[3] = Conc 3 μg/mL, luciferase activity over diluent control
[4] = Conc 10 μg/mL, luciferase activity over diluent control

SMILES | fold induction at 20 µg/mL [1] | other results
C[C@@H](c1ccccc1)[C@@H](CO)NS(=O)(=O)c1ccc(Br)s1 [Example 66, 5-bromo-N-[(1S,2S)-1-(hydroxymethyl)-2-phenylpropyl]thiophene-2-sulfonamide] | 5.3 | 
CC(C)C[C@@H](c1ccco1)[C@@H](CO)NS(=O)(=O)c1ccc(Br)s1 [Example 72, 5-bromo-N-[(1S,2R)-2-(2-furyl)-1-(hydroxymethyl)-4-methylpentyl]thiophene-2-sulfonamide] | 6.4 | 
CNC1CCC([C@@H](CO)NS(=O)(=O)c2ccc(Cl)s2)CC1 (stereo partly drawn) [Example 212, 5-chloro-N-[(S)-2-hydroxy-1-(4-methylaminocyclohexyl)ethyl]thiophene-2-sulfonamide] | 1.7 | 
C=CC(O)[C@@H](NS(=O)(=O)c1ccc(Cl)s1)[C@@H](C)CC (stereo partly drawn) [Example 127, 5-chloro-N-{(S)-2-hydroxy-1-[(S)-1-methylpropyl]but-3-enyl}thiophene-2-sulfonamide] |  | fold induction at 10 µg/mL [2]: 4.27
O=S(=O)(NC1(CO)CCCC1)c1ccc(Br)s1 [Example 109] |  | APPI Fold Increase [3]: 1.8 fold; APPI Fold Increase [4]: 2 fold
CCCCCC[C@@H](C)[C@@H](CO)NS(=O)(=O)c1ccc(Br)s1 [Example 57, 5-bromo-N-[(1S,2R)-1-(hydroxymethyl)-2-methyloctyl]thiophene-2-sulfonamide] | 6.4 | 
CCNC1CCC([C@@H](CO)NS(=O)(=O)c2ccc(Cl)s2)CC1 (stereo partly drawn) [Example 213, 5-chloro-N-[(S)-2-hydroxy-1-(4-ethylaminocyclohexyl)ethyl]thiophene-2-sulfonamide] | 1.6 | 
CCCCC(CO)NS(=O)(=O)c1ccc(Br)s1 (racemic) [Example 106, 5-bromo-N-[1-(hydroxymethyl)pentyl]thiophene-2-sulfonamide] | 2.4 | 
CC[C@H](C)[C@H](NS(=O)(=O)c1ccc(Cl)s1)C(O)c1ccc(F)cc1 (stereo partly drawn) [Example 130, 5-chloro-N-{(S,S)-1-[(4-fluorophenyl)(hydroxy)methyl]-2-methylbutyl}thiophene-2-sulfonamide] |  | fold induction at 10 µg/mL [2]: 1.85
CC[C@H](C)[C@@H](CO)NS(=O)(=O)c1cc(Cl)sc1Cl [Example 5] |  | APPI Fold Increase (Conc 0.3 μg/mL, luciferase activity over diluent control): 0.9 fold; APPI Fold Increase (Conc 1 μg/mL, luciferase activity over diluent control): 0.9 fold; APPI Fold Increase [3]: 1.1 fold; APPI Fold Increase [4]: 1.1 fold
CC(C)(CO)NS(=O)(=O)c1ccc(Cl)s1 [Example 92, 5-chloro-N-(2-hydroxy-1,1-dimethylethyl)thiophene-2-sulfonamide] | 1.5 | 
O=S(=O)(N[C@H](CO)C1CCC(NCc2ccccn2)CC1)c1ccc(Cl)s1 (stereo partly drawn) [Example 219, 5-chloro-N-[(S)-2-hydroxy-1-(4-(2-pyridyl)methylaminocyclohexyl)ethyl]thiophene-2-sulfonamide] | 2.3 | 
CCC(NCCO)[C@@H](CO)NS(=O)(=O)c1ccc(Cl)s1 (stereo partly drawn) [Example 82, 5-chloro-N-[(1S)-2-[(2-hydroxyethyl)amino]-1-(hydroxymethyl)butyl]-2-thiophenesulfonamide] | 2.2 | 
C=C(C)C(O)(C(=C)C)[C@@H](NS(=O)(=O)c1ccc(Br)s1)[C@@H](C)CC [Example 174, 5-bromo-N-{(S)-2-hydroxy-2-isopropenyl-3-methyl-1-[(S)-1-methylpropyl]but-3-enyl}thiophene-2-sulfonamide] |  | fold induction at 10 µg/mL [2]: 1.75
O=S(=O)(N[C@H](CO)CSCc1ccccc1)c1ccc(Br)s1 [Example 114, N-[R-2-(benzylthio)-1-(hydroxymethyl)ethyl]-5-bromothiophene-2-sulfonamide] | 1.8 | 
O=S(=O)(NC1(CO)CCCCC1)c1ccc(Br)s1 [Example 181, 5-bromo-N-[1-(hydroxymethyl)cyclohexyl]thiophene-2-sulfonamide] | 2.6 | 
C=CCNC1CCC([C@@H](CO)NS(=O)(=O)c2ccc(Cl)s2)CC1 (stereo partly drawn) [Example 215, 5-chloro-N-[(S)-2-hydroxy-1-(4-allylaminocyclohexyl)ethyl]thiophene-2-sulfonamide] | 2 | 
COc1ccc([C@@H](C)[C@@H](CO)NS(=O)(=O)c2ccc(Cl)s2)cc1 [Example 28, 5-chloro-N-[(1S,2R)-1-(hydroxymethyl)-2-(4-methoxyphenyl)propyl]thiophene-2-sulfonamide] | 7 | 
CCCCC(CC)C(CO)NS(=O)(=O)c1ccc(Cl)s1 (stereo not shown) [Example 21, 5-chloro-N-[2-ethyl-1-(hydroxymethyl)hexyl]thiophene-2-sulfonamide] |  | fold induction at 20 µg/mL (read-out: APPI Fold Increase): 3.3
CC[C@H](C)[C@H](NS(=O)(=O)c1ccc(Cl)s1)C(O)C=C(C)C (stereo partly drawn) [Example 132, 5-chloro-N-{(S)-2-hydroxy-4-methyl-1-[(S)-1-methylpropyl]pent-3-enyl}thiophene-2-sulfonamide] |  | fold induction at 10 µg/mL [2]: 1.68
CCCCCC(O)C(NS(=O)(=O)c1ccc(Cl)s1)C(C)CC (mixture of isomers) [Example 122] |  | APPI Fold Increase [4]: 1.68 fold and 1.8 fold
O=S(=O)(N[C@H](CO)C1Cc2ccccc2C1)c1ccc(Cl)s1 [Example 228, 5-Chloro-N-[(1S)-1-(2,3-dihydro-1H-inden-2-yl)-2-hydroxyethyl]thiophene-2-sulfonamide] | 9.9 | 
CC[C@H](C)[C@@H](CO)N(CCOc1ccccc1)S(=O)(=O)c1ccc(Cl)s1 [Example 87, 5-Chloro-N-[(1S,2S)-1-(hydroxymethyl)-2-methylbutyl]-N-(2-phenoxyethyl)thiophene-2-sulfonamide] | 3.1 | 
CC(C)[C@@H](CO)NS(=O)(=O)c1ccc(Cl)s1 [Example 8, 5-Chloro-N-[(1S)-1-(hydroxymethyl)-2-methylpropyl]thiophene-2-sulfonamide] | 3.3 | fold induction at 1 µg/mL (Conc 1 μg/mL, luciferase activity over diluent control, read-out: APPI Fold Increase): 1.5; fold induction at 3 µg/mL (Conc 3 μg/mL, luciferase activity over diluent control, read-out: APPI Fold Increase): 2.5; fold induction at 10 µg/mL [2]: 3.7
O=S(=O)(NC1(CO)CCCCC1)c1ccc(Cl)s1 [Example 177, 5-Chloro-N-[1-(hydroxymethyl)cyclohexyl]thiophene-2-sulfonamide] | 5.1 | 
C=C(C)CC(O)C1(NS(=O)(=O)c2ccc(Cl)s2)CCCCC1 (stereo not shown) [Example 198, 5-chloro-N-[1-(1-hydroxy-3-methylbut-3-enyl)cyclohexyl]thiophene-2-sulfonamide] | 4.4 | 
C=CCCC(O)[C@@H](NS(=O)(=O)c1ccc(Cl)s1)[C@@H](C)CC (stereo partly drawn) [Example 137, 5-chloro-N-{(S)-2-hydroxy-1-[(S)-1-methylpropyl]hex-5-enyl}thiophene-2-sulfonamide] |  | fold induction at 10 µg/mL [2]: 1.96
CCC[C@H](CC)[C@@H](CO)NS(=O)(=O)c1ccc(Cl)s1 [Example 34, 5-chloro-N-[(1S,2S)-2-ethyl-1-(hydroxymethyl)pentyl]thiophene-2-sulfonamide] | 5.9 | 
CC[C@H](C)[C@@H](CO)NS(=O)(=O)c1sc(Cl)cc1Br [Example 1, 3-Bromo-5-chloro-N-[(1S,2S)-1-(hydroxymethyl)-2-methylbutyl]thiophene-2-sulfonamide] |  | fold induction at 10 µg/mL [2]: 1.57
CCC[C@H](O)[C@@H](NS(=O)(=O)c1ccc(Br)s1)[C@@H](C)CC [Example 192, 5-bromo-N-{(S,S)-2-hydroxy-1-[(S)-1-methylpropyl]pentyl}thiophene-2-sulfonamide] |  | APPI Fold Increase (Conc 20 μg/mL, luciferase activity over diluent control): 2.2 fold and 1.9 fold and 1.7 fold
